Data: ChEMBL document CHEMBL1136088, “Antitumor agents. Part 218: Cappamensin A, a new In vitro anticancer principle, from Capparis sikkimensis” (2003)
In brackets after ≈: the same amount, converted by molar mass. Activity calls are given as the source filed them. The calls are words filed in the database; no cut-off is given here.

What was measured:
KB-VIN [1] = assay: In vitro anticancer activity against human vincristine-resistant tumor cell line (KB-VIN); settings: read-out: ED50 (the source's name)
[2] = In vitro anticancer activity against human epidermoid nasopharyngeal tumor cell line (KB); format: functional; settings: for EC50: read-out: ED50 (the source's name)
PC-3 = assay: In vitro anticancer activity against human prostate (PC-3) cell line; format: functional; settings: for EC50: read-out: ED50 (the source's name)
SK-MEL-2 [3] = assay: In vitro anticancer activity against human melanoma cancer (SK-MEL-2) cell line; format: functional
MCF7 = assay: In vitro anticancer activity against human breast (MCF-7) cell line; format: functional; settings: for EC50: read-out: ED50 (the source's name)
A549 = assay: In vitro anticancer activity against human lung (A549) cell line; format: functional; settings: for EC50: read-out: ED50 (the source's name)
[4] = In vitro anticancer activity against human ovarian cancer ([…]) cell line; format: functional; settings: read-out: ED50 (the source's name)
HCT-8 = assay: In vitro anticancer activity against human ileocecal tumor cell line (HCT-8); format: functional; settings: for EC50: read-out: ED50 (the source's name)
U-87 MG = assay: In vitro anticancer activity against human glioblastoma tumor cell line (U-87-MG); format: functional, U-87MG ATCC; settings: for EC50: read-out: ED50 (the source's name)
KB-VIN [5] = assay: In vitro anticancer activity against human vincristine-resistant tumor cell line (KB-VIN)
SK-MEL-2 [6] = assay: In vitro anticancer activity against human melanoma cancer (SK-MEL-2) cell line; not active at 20 ug/mL; format: functional, cell-based

EC50 (KB-VIN [1]) [µg/mL]	EC50 [2] [µg/mL]	EC50 (PC-3) [µg/mL]	EC50 (SK-MEL-2 [3]; read-out: ED50 (the source's name)) [µg/mL]	EC50 (MCF7) [µg/mL]	EC50 (A549) [µg/mL]	EC50 [4] [µg/mL]	EC50 (HCT-8) [µg/mL]	EC50 (U-87 MG) [µg/mL]	SMILES	Inhibition (SK-MEL-2 [3]) [%]	Inhibition (U-87 MG) [%]	Inhibition (KB-VIN [5]) [%]	ED50 (SK-MEL-2 [6])	Inhibition [2] [%]	Inhibition (PC-3) [%]	Inhibition (MCF7) [%]	Inhibition (A549) [%]	Inhibition (HCT-8) [%]
3.5 (≈ 15.8 µM)	4 (≈ 18.1 µM)	4.7 (≈ 21.2 µM)	> 5	4 (≈ 18.1 µM)	3.6 (≈ 16.3 µM)	2.4 (≈ 10.8 µM)	3.6 (≈ 16.3 µM)	> 5	COc1ccc2c(c1)OC(C)=C(O)N2C=O	30	36							
> 20	> 20	> 20		> 20	> 20	20 (≈ 85 µM)	> 20	> 20	COC1=C(C)Oc2cc(OC)ccc2N1C=O		19	20	inactive	22	37	49	36	39
